How the values were obtained:
Assay type in all cases: in vivo
[1] = tested on: giant foxtail (Setaria faberii); assay: Test A preemergence; settings: Setaria faberi, pre-emergence, 240 h, Preemergence; for pest or weed control at 31 g/ha: 31 g ai/ha, 0 to 100 scale where 0 is no effect and 100 is complete control, read-out: Foxtail, Giant plant response rating; for pest or weed control at 125 g/ha: 125 g ai/ha, 0 to 100 scale (0 no effect, 100 complete control), read-out: Plant response rating, Foxtail, Giant
In short: (§1)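 Visual injury, scored on a 0–100 scale relative to untreated controls, was recorded about 10 d after application. Treatments were a preemergence soil spray over planted seeds or a postemergence spray on plants at the one- to two-leaf stage, 2 to 10 cm tall, all in loam soil–sand blend in the greenhouse.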

[2] = tested on: ryegrass, Italian (Italian ryegrass, Lolium multiflorum); assay: Test A preemergence; settings: Lolium multiflorum, pre-emergence, 240 h, Preemergence; for pest or weed control at 31 g/ha: 31 g ai/ha, 0 to 100 scale where 0 is no effect and 100 is complete control, read-out: Ryegrass, Italian plant response rating; for pest or weed control at 125 g/ha: 125 g ai/ha, 0 to 100 scale (0 no effect, 100 complete control), read-out: Plant response rating, Ryegrass, Italian
In short: as §1

[3] = tested on: pigweed (Amaranthus retroflexus); assay: Test A preemergence; settings: Amaranthus retroflexus, pre-emergence, 240 h, Preemergence; for pest or weed control at 31 g/ha: 31 g ai/ha, 0 to 100 scale where 0 is no effect and 100 is complete control, read-out: Pigweed plant response rating; for pest or weed control at 125 g/ha: 125 g ai/ha, 0 to 100 scale (0 no effect, 100 complete control), read-out: Plant response rating, Pigweed
[4] = tested on: ragweed (common ragweed, Ambrosia elatior); assay: Test A preemergence; settings: Ambrosia artemisiifolia, pre-emergence, 240 h, Preemergence; for pest or weed control at 31 g/ha: 31 g ai/ha, 0 to 100 scale where 0 is no effect and 100 is complete control, read-out: Ragweed plant response rating; for pest or weed control at 125 g/ha: 125 g ai/ha, 0 to 100 scale (0 no effect, 100 complete control), read-out: Plant response rating, Ragweed
In short: as §1

Kochia (Kochia scoparia) [5] = assay: Test A preemergence; settings: Bassia scoparia, pre-emergence, 240 h, Preemergence; for pest or weed control at 31 g/ha: 31 g ai/ha, 0 to 100 scale where 0 is no effect and 100 is complete control, read-out: Kochia plant response rating; for pest or weed control at 125 g/ha: 125 g ai/ha, 0 to 100 scale (0 no effect, 100 complete control), read-out: Plant response rating, Kochia
In short: as §1

[6] = tested on: barnyardgrass (Echinochloa crus-galli); assay: Test A preemergence; settings: Echinochloa crus-galli, pre-emergence, 240 h, Preemergence; for pest or weed control at 31 g/ha: 31 g ai/ha, 0 to 100 scale where 0 is no effect and 100 is complete control, read-out: Barnyardgrass plant response rating; for pest or weed control at 125 g/ha: 125 g ai/ha, 0 to 100 scale (0 no effect, 100 complete control), read-out: Plant response rating, Barnyardgrass
In short: as §1

[7] = tested on: sedge, umbrella (small-flower umbrella sedge, Cyperus difformis); assay: Test B flooded paddy test; settings: Cyperus difformis, 360 h, Flood, 250 g ai/ha; visually evaluated after 13 to 15 d; read-out: Plant response rating, Sedge, Umbrella (0 to 100 scale where 0 is no effect and 100 is complete control)
In short: (§2)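 Visual ratings (0 none to 100 complete control) are relative to untreated plants, taken 13–15 d after treatment in a greenhouse. Test material went straight into floodwater standing 3 cm above the soil, kept constant, on plants at the 2-leaf stage.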

[8] = tested on: barnyardgrass (Echinochloa crus-galli); assay: Test B flooded paddy test; settings: Echinochloa crus-galli, 360 h, Flood, 250 g ai/ha; visually evaluated after 13 to 15 d; read-out: Plant response rating, Barnyardgrass (0 to 100 scale where 0 is no effect and 100 is complete control)
In short: as §2

[9] = tested on: ducksalad (Heteranthera limosa); assay: Test B flooded paddy test; settings: Heteranthera limosa, 360 h, Flood, 250 g ai/ha; visually evaluated after 13 to 15 d; read-out: Plant response rating, Ducksalad (0 to 100 scale where 0 is no effect and 100 is complete control)
In short: as §2

rice (Oryra sativa) = assay: Test B flooded paddy test; settings: Oryza sativa, 360 h, Flood, 250 g ai/ha; visually evaluated after 13 to 15 d; read-out: Plant response rating, Rice (0 to 100 scale where 0 is no effect and 100 is complete control)
In short: as §2

[10] = tested on: giant foxtail (Setaria faberii); assay: Test A postemergence; settings: Setaria faberi, post-emergence, 240 h, Postemergence, read-out: Foxtail, Giant plant response rating (0 to 100 scale); for pest or weed control at 125 g/ha: 125 g ai/ha, visual rating about 10 d after treatment; for pest or weed control at 31 g/ha: 31 g ai/ha, 0 is no effect, 100 is complete control
In short: as §1

[11] = tested on: wheat (Triticum aestivum); assay: Test A postemergence; settings: Triticum aestivum, post-emergence, 240 h, Postemergence, read-out: Wheat plant response rating (0 to 100 scale); for plant injury at 125 g/ha: 125 g ai/ha, visual rating about 10 d after treatment; for plant injury at 31 g/ha: 31 g ai/ha, 0 is no effect, 100 is complete control
In short: as §1

[12] = tested on: ryegrass, Italian (Italian ryegrass, Lolium multiflorum); assay: Test A postemergence; settings: Lolium multiflorum, post-emergence, 240 h, Postemergence, read-out: Ryegrass, Italian plant response rating (0 to 100 scale); for pest or weed control at 125 g/ha: 125 g ai/ha, visual rating about 10 d after treatment; for pest or weed control at 31 g/ha: 31 g ai/ha, 0 is no effect, 100 is complete control
In short: as §1

[13] = tested on: Galium (catchweed bedstraw, Galium aparine); assay: Test A postemergence; settings: Galium, post-emergence, 240 h, Postemergence, read-out: Galium plant response rating (0 to 100 scale); for pest or weed control at 125 g/ha: 125 g ai/ha, visual rating about 10 d after treatment; for pest or weed control at 31 g/ha: 31 g ai/ha, 0 is no effect, 100 is complete control
In short: as §1

[14] = tested on: pigweed (Amaranthus retroflexus); assay: Test A postemergence; settings: Amaranthus retroflexus, post-emergence, 240 h, Postemergence, read-out: Pigweed plant response rating (0 to 100 scale); for pest or weed control at 125 g/ha: 125 g ai/ha, visual rating about 10 d after treatment; for pest or weed control at 31 g/ha: 31 g ai/ha, 0 is no effect, 100 is complete control
In short: as §1

[15] = tested on: ragweed (common ragweed, Ambrosia elatior); assay: Test A postemergence; settings: Ambrosia artemisiifolia, post-emergence, 240 h, Postemergence, read-out: Ragweed plant response rating (0 to 100 scale); for pest or weed control at 125 g/ha: 125 g ai/ha, visual rating about 10 d after treatment; for pest or weed control at 31 g/ha: 31 g ai/ha, 0 is no effect, 100 is complete control
In short: as §1

Kochia (Kochia scoparia) [16] = assay: Test A postemergence; settings: Bassia scoparia, post-emergence, 240 h, Postemergence, read-out: Kochia plant response rating (0 to 100 scale); for pest or weed control at 125 g/ha: 125 g ai/ha, visual rating about 10 d after treatment; for pest or weed control at 31 g/ha: 31 g ai/ha, 0 is no effect, 100 is complete control
In short: as §1

[17] = tested on: barnyardgrass (Echinochloa crus-galli); assay: Test A postemergence; settings: Echinochloa crus-galli, post-emergence, 240 h, Postemergence; for pest or weed control at 125 g/ha: 125 g ai/ha, visual rating about 10 d after treatment, read-out: Barnyardgrass plant response rating (0 to 100 scale, 0 no effect, 100 complete control); for pest or weed control at 31 g/ha: 31 g ai/ha, 0 is no effect, 100 is complete control, read-out: Barnyardgrass plant response rating (0 to 100 scale)
In short: as §1

[18] = tested on: blackgrass (Alopecurus myosuroides); assay: Test A postemergence; settings: Alopecurus myosuroides, post-emergence, 240 h, Postemergence, read-out: Blackgrass plant response rating (0 to 100 scale); for pest or weed control at 125 g/ha: 125 g ai/ha, visual rating about 10 d after treatment; for pest or weed control at 31 g/ha: 31 g ai/ha, 0 is no effect, 100 is complete control
In short: as §1

corn (Zea mays) = assay: Test A postemergence; settings: Zea mays, post-emergence, 240 h, Postemergence, read-out: Corn plant response rating (0 to 100 scale); for plant injury at 125 g/ha: 125 g ai/ha, visual rating about 10 d after treatment; for plant injury at 31 g/ha: 31 g ai/ha, 0 is no effect, 100 is complete control
In short: as §1

In the case of COc1c([C@H]2CN(C)C(=O)[C@@H]2C(=O)Nc2ccccc2SC)cccc1C(F)(F)F [Compound 1340], the pest or weed control at 31 g/ha [1] is reported as 40%, the pest or weed control at 125 g/ha [1] is reported as 90% and the pest or weed control at 31 g/ha [2] is reported as 0%. It also gave a pest or weed control at 125 g/ha [2] of 0%, a pest or weed control at 31 g/ha [3] of 0% and a pest or weed control at 125 g/ha [3] of 20%. It also gave a pest or weed control at 31 g/ha [4] of 0%, a pest or weed control at 125 g/ha [4] of 0% and a pest or weed control at 31 g/ha (Kochia (Kochia scoparia) [5]) of 0%. It also gave a pest or weed control at 125 g/ha (Kochia (Kochia scoparia) [5]) of 0%, a pest or weed control at 31 g/ha [6] of 90% and a pest or weed control at 125 g/ha [6] of 90%. For the same compound, the pest or weed control at 250 g/ha [7] was 0%, the pest or weed control at 250 g/ha [8] was 40% and the pest or weed control at 250 g/ha [9] was 80%. For the same compound, the pest or weed control at 250 g/ha (rice (Oryra sativa)) was 20%, the pest or weed control at 125 g/ha [10] was 50% and the pest or weed control at 31 g/ha [10] was 0%. For the same compound, the plant injury at 125 g/ha [11] was 0%, the plant injury at 31 g/ha [11] was 0% and the pest or weed control at 125 g/ha [12] was 0%. The pest or weed control at 31 g/ha [12] was 0%, the pest or weed control at 125 g/ha [13] was 20% and the pest or weed control at 31 g/ha [13] was 0%. For the same compound, the pest or weed control at 125 g/ha [14] was 0%, the pest or weed control at 31 g/ha [14] was 0% and the pest or weed control at 125 g/ha [15] was 0%. It also gave a pest or weed control at 31 g/ha [15] of 0%, a pest or weed control at 125 g/ha (Kochia (Kochia scoparia) [16]) of 20% and a pest or weed control at 31 g/ha (Kochia (Kochia scoparia) [16]) of 0%. It also gave a pest or weed control at 125 g/ha [17] of 30%, a pest or weed control at 31 g/ha [17] of 20% and a pest or weed control at 125 g/ha [18] of 0%. For the same compound, the pest or weed control at 31 g/ha [18] was 0%, the plant injury at 125 g/ha (corn (Zea mays)) was 20% and the plant injury at 31 g/ha (corn (Zea mays)) was 0%.

In the case of Cc1cccc([C@H]2CN(C)C(=O)[C@@H]2C(=O)Nc2cccnc2F)c1 [Compound 1345], the pest or weed control at 31 g/ha [1] is reported as 90%, the pest or weed control at 125 g/ha [1] is reported as 100% and the pest or weed control at 31 g/ha [2] is reported as 0%. The pest or weed control at 125 g/ha [2] was 0%, the pest or weed control at 31 g/ha [3] was 0% and the pest or weed control at 125 g/ha [3] was 0%. For the same compound, the pest or weed control at 31 g/ha [4] was 0%, the pest or weed control at 125 g/ha [4] was 60% and the pest or weed control at 31 g/ha (Kochia (Kochia scoparia) [5]) was 0%. The pest or weed control at 125 g/ha (Kochia (Kochia scoparia) [5]) was 40%, the pest or weed control at 31 g/ha [6] was 80% and the pest or weed control at 125 g/ha [6] was 100%. For the same compound, the pest or weed control at 250 g/ha [7] was 0%, the pest or weed control at 250 g/ha [8] was 90% and the pest or weed control at 250 g/ha [9] was 95%. It also gave a pest or weed control at 250 g/ha (rice (Oryra sativa)) of 0%, a pest or weed control at 125 g/ha [10] of 90% and a pest or weed control at 31 g/ha [10] of 20%. The plant injury at 125 g/ha [11] was 0%, the plant injury at 31 g/ha [11] was 0% and the pest or weed control at 125 g/ha [12] was 0%. It also gave a pest or weed control at 31 g/ha [12] of 0%, a pest or weed control at 125 g/ha [13] of 20% and a pest or weed control at 31 g/ha [13] of 0%. It also gave a pest or weed control at 125 g/ha [14] of 0%, a pest or weed control at 31 g/ha [14] of 0% and a pest or weed control at 125 g/ha [15] of 0%. The pest or weed control at 31 g/ha [15] was 0%, the pest or weed control at 125 g/ha (Kochia (Kochia scoparia) [16]) was 0% and the pest or weed control at 31 g/ha (Kochia (Kochia scoparia) [16]) was 0%. It also gave a pest or weed control at 125 g/ha [17] of 90%, a pest or weed control at 31 g/ha [17] of 50% and a pest or weed control at 125 g/ha [18] of 20%. The pest or weed control at 31 g/ha [18] was 0%, the plant injury at 125 g/ha (corn (Zea mays)) was 0% and the plant injury at 31 g/ha (corn (Zea mays)) was 0%.
